Patent US10647713B2 (Nimbus Lakshmi, Inc., priority 2016, dated 2020)

Biological target: human TYK2 (JH2domain-pseudokinase) (Homo sapiens (Human), UniProt P29597)
Assay: TYK2 JH2 Domain Binding Assay (KINOMEscan, DiscoveRx)
Conditions: 11-point dilution, duplicate
Summary of the method: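 Kd from duplicate 11-point 3-fold dilutions starting at 30,000 nM, fitted by Hill equation with slope fixed at −1. Compounds (final 0.9% DMSO) displace DNA-tagged HEK293-expressed TYK2 JH2 fusion (<0.1 nM) from ligand-coated beads over 1 h at room temperature; eluted kinase read by qPCR.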

human TYK2 (JH2domain-pseudokinase), sequence (P29597 556-888): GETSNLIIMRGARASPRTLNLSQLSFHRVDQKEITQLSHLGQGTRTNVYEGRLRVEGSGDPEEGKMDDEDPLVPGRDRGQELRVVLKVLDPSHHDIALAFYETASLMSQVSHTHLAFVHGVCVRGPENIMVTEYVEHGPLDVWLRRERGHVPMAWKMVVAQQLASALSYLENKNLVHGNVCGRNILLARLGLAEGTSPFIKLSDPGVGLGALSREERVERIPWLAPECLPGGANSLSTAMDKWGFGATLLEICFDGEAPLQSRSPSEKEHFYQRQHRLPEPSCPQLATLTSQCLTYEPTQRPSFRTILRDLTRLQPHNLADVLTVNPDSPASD

With `CS(=O)(=O)c1cc(C2CCOCC2)ccc1Nc1cc(NC(=O)[C@H]2CC2(F)F)nc2[nH]c(C(F)F)nc12` [I-294, (R)—N-(2-(difluoromethyl)-7-((2-(methylsulfonyl)-4-(tetrahydro-2H-pyran-4-yl)phenyl)amino)-3H-imidazo[4,5-b]pyridin-5-yl)-2,2-difluorocyclopropane-1-carboxamide] the Kd was 1 to 10 nM.

Work on `COCCNc1ccc(Nc2cc(Nc3ccccc3N(C)S(C)(=O)=O)c3nc(C(F)F)[nH]c3n2)nc1C#N` [I-295, N-(2-((5-((6-cyano-5-((2-methoxyethyl)amino)pyridin-2-yl)amino)-2-(difluoromethyl)-3H-imidazo[4,5-b]pyridin-7-yl)amino)phenyl)-N-methylmethane sulfonamide] yielded a Kd of 0.1 to 0.5 nM.

For `COc1c(Nc2cc(NC(=O)[C@@H]3C[C@@H]3F)nc3[nH]c(C(F)F)nc23)cccc1-c1ncn(C)n1` [I-296, (1S,2S)—N-(2-(difluoromethyl)-7-((2-methoxy-3-(1-methyl-1H-1,2,4-triazol-3-yl)phenyl)amino)-3H-imidazo[4,5-b]pyridin-5-yl)-2-fluorocyclopropane-1-carboxamide], the Kd was 0.5 to 1 nM.

For `C[S@+]([O-])c1ccccc1Nc1cc(NC(=O)C2CC2)nc2[nH]c(C(F)F)nc12` [I-297, (S)—N-(2-(difluoromethyl)-7-((2-(methylsulfinyl)phenyl)amino)-3H-imidazo[4,5-b]pyridin-5-yl)cyclopropanecarboxamide], the Kd was 0.5 to 1 nM.

Molecule `C[S@@+]([O-])c1ccccc1Nc1cc(NC(=O)C2CC2)nc2[nH]c(C(F)F)nc12` [I-298, (R)—N-(2-(difluoromethyl)-7-((2-(methylsulfinyl)phenyl)amino)-3H-imidazo[4,5-b]pyridin-5-yl)cyclopropanecarboxamide] has a Kd of over 10 nM.

For `Cc1nc2c(Nc3ccc(-c4cc(C)n(C)n4)cc3S(C)(=O)=O)cc(Nc3cccc(C(F)(F)F)n3)nc2[nH]1` [I-299, N7-(4-(1,5-dimethyl-1H-pyrazol-3-yl)-2-(methylsulfonyl)phenyl)-2-methyl-N5-(6-(trifluoromethyl)pyridin-2-yl)-3H-imidazo[4,5-b]pyridine-5,7-diamine], the Kd was 0.5 to 1 nM.

With `Cc1ncc(Nc2cc(Nc3ccc(-c4cc(C)n(C)n4)cc3S(C)(=O)=O)c3nc(C(F)F)[nH]c3n2)nc1C` [I-300, 2-(difluoromethyl)-N7-(4-(1,5-dimethyl-1H-pyrazol-3-yl)-2-(methylsulfonyl)phenyl)-N5-(5,6-dimethylpyrazin-2-yl)-3H-imidazo[4,5-b]pyridine-5,7-diamine] the Kd was 0.1 to 0.5 nM.

Molecule `Cn1cnc(-c2ccc(Nc3cc(NC(=O)[C@H]4C[C@H]4F)nc4[nH]c(C(F)F)nc34)c(S(C)(=O)=O)c2)c1` [I-301, (1R,2R)—N-(2-(difluoromethyl)-7-((4-(1-methyl-1H-imidazol-4-yl)-2-(methylsulfonyl)phenyl)amino)-3H-imidazo[4,5-b]pyridin-5-yl)-2-fluorocyclopropane-1-carboxamide] has a Kd of 0.1 to 0.5 nM.

`Cc1c(-c2ccc(Nc3cc(Nc4cccc(C#N)n4)nc4[nH]c(C(F)F)nc34)c(S(C)(=O)=O)c2)cnn1C` [I-302, 6-((2-(difluoromethyl)-7-((4-(1,5-dimethyl-1H-pyrazol-4-yl)-2-(methylsulfonyl)phenyl)amino)-3H-imidazo[4,5-b]pyridin-5-yl)amino)picolinonitrile] showed a Kd of 0.1 to 0.5 nM.

Work on `Cc1ccc(Nc2cc(Nc3ccc(-c4cc(C)n(C)n4)cc3S(C)(=O)=O)c3nc(C(F)F)[nH]c3n2)nc1C#N` [I-303, 6-((2-(difluoromethyl)-7-((4-(1,5-dimethyl-1H-pyrazol-3-yl)-2-(methylsulfonyl)phenyl)amino)-3H-imidazo[4,5-b]pyridin-5-yl)amino)-3-methylpicolinonitrile] yielded a Kd of 0.5 to 1 nM.

For `Cc1cnc(-c2ccc(Nc3cc(NC(=O)C4CC4)nc4[nH]c(C(F)F)nc34)c(S(C)(=O)=O)c2)s1` [I-304, N-(2-(difluoromethyl)-7-((2-(methylsulfonyl)-4-(5-methylthiazol-2-yl)phenyl)amino)-3H-imidazo[4,5-b]pyridin-5-yl)cyclopropanecarboxamide], the Kd was 0.5 to 1 nM.

Molecule `Cc1nc2c(Nc3ccc(-c4ncc(C)s4)cc3S(C)(=O)=O)cc(NC(=O)C3CC3)nc2[nH]1` [I-305, N-(2-methyl-7-((2-(methylsulfonyl)-4-(5-methylthiazol-2-yl)phenyl)amino)-3H-imidazo[4,5-b]pyridin-5-yl)cyclopropanecarboxamide] has a Kd of 0.1 to 0.5 nM.

With `CS(=O)(=O)c1cc([C@H]2CCCO2)ccc1Nc1cc(NC(=O)[C@@H]2CC2(F)F)nc2[nH]c(C(F)F)nc12` [I-306, (S)—N-(2-(difluoromethyl)-7-((2-(methylsulfonyl)-4-((R)-tetrahydrofuran-2-yl)phenyl)amino)-3H-imidazo[4,5-b]pyridin-5-yl)-2,2-difluorocyclopropane-1-carboxamide] the Kd was 0.5 to 1 nM.

With `CS(=O)(=O)c1cc([C@H]2CCCO2)ccc1Nc1cc(NC(=O)[C@H]2CC2(F)F)nc2[nH]c(C(F)F)nc12` [I-307, (R)—N-(2-(difluoromethyl)-7-((2-(methylsulfonyl)-4-((R)-tetrahydrofuran-2-yl)phenyl)amino)-3H-imidazo[4,5-b]pyridin-5-yl)-2,2-difluorocyclopropane-1-carboxamide] the Kd was 1 to 10 nM.

Molecule `Cc1c(-c2ccc(Nc3cc(NC(=O)[C@@H]4CC4(F)F)nc4[nH]c(C(F)F)nc34)c(S(C)(=O)=O)c2)cnn1C` [I-308, (S)—N-(2-(difluoromethyl)-7-((4-(1,5-dimethyl-1H-pyrazol-4-yl)-2-(methylsulfonyl)phenyl)amino)-3H-imidazo[4,5-b]pyridin-5-yl)-2,2-difluorocyclopropane-1-carboxamide] has a Kd of 0.1 to 0.5 nM.

Molecule `Cc1c(-c2ccc(Nc3cc(NC(=O)[C@H]4CC4(F)F)nc4[nH]c(C(F)F)nc34)c(S(C)(=O)=O)c2)cnn1C` [I-309, (R)—N-(2-(difluoromethyl)-7-((4-(1,5-dimethyl-1H-pyrazol-4-yl)-2-(methylsulfonyl)phenyl)amino)-3H-imidazo[4,5-b]pyridin-5-yl)-2,2-difluorocyclopropane-1-carboxamide] has a Kd of 0.1 to 0.5 nM.

For `CS(=O)(=O)c1cc([C@H]2CCCOC2)ccc1Nc1cc(NC(=O)[C@H]2CC2(F)F)nc2[nH]c(C(F)F)nc12` [I-310, (R)—N-(2-(difluoromethyl)-7-((2-(methylsulfonyl)-4-((R)-tetrahydro-2H-pyran-3-yl)phenyl)amino)-3H-imidazo[4,5-b]pyridin-5-yl)-2,2-difluorocyclopropane-1-carboxamide], the Kd was 0.5 to 1 nM.

With `CS(=O)(=O)c1cc([C@H]2CCCOC2)ccc1Nc1cc(NC(=O)[C@@H]2CC2(F)F)nc2[nH]c(C(F)F)nc12` [I-311, (S)—N-(2-(difluoromethyl)-7-((2-(methylsulfonyl)-4-((R)-tetrahydro-2H-pyran-3-yl)phenyl)amino)-3H-imidazo[4,5-b]pyridin-5-yl)-2,2-difluorocyclopropane-1-carboxamide] the Kd was 1 to 10 nM.

With `Cc1nc2c(Nc3ccc(-c4nc(C)c(C)s4)cc3S(C)(=O)=O)cc(NC(=O)C3CC3)nc2[nH]1` [I-312, N-(7-((4-(4,5-dimethylthiazol-2-yl)-2-(methylsulfonyl)phenyl)amino)-2-methyl-3H-imidazo[4,5-b]pyridin-5-yl)cyclopropanecarboxamide] the Kd was 0.1 to 0.5 nM.

With `Cc1cc(-c2ccc(Nc3cc(NC(=O)[C@@H]4CC4(F)F)nc4[nH]c(C(F)F)nc34)c(S(C)(=O)=O)c2)nn1C` [I-313, (S)—N-(2-(difluoromethyl)-7-((4-(1,5-dimethyl-1H-pyrazol-3-yl)-2-(methylsulfonyl)phenyl)amino)-3H-imidazo[4,5-b]pyridin-5-yl)-2,2-difluorocyclopropane-1-carboxamide] the Kd was 0.5 to 1 nM.

`Cc1cc(-c2ccc(Nc3cc(NC(=O)[C@H]4CC4(F)F)nc4[nH]c(C(F)F)nc34)c(S(C)(=O)=O)c2)nn1C` [I-314, (R)—N-(2-(difluoromethyl)-7-((4-(1,5-dimethyl-1H-pyrazol-3-yl)-2-(methylsulfonyl)phenyl)amino)-3H-imidazo[4,5-b]pyridin-5-yl)-2,2-difluorocyclopropane-1-carboxamide] was tested, and the Kd was 1 to 10 nM.

With `Cc1cn(C)nc1-c1ccc(Nc2cc(Nc3cnc(C)c(C)n3)nc3[nH]c(C(F)F)nc23)c(S(C)(=O)=O)c1` [I-315, 2-(difluoromethyl)-N7-(4-(1,4-dimethyl-1H-pyrazol-3-yl)-2-(methylsulfonyl)phenyl)-N5-(5,6-dimethylpyrazin-2-yl)-3H-imidazo[4,5-b]pyridine-5,7-diamine] the Kd was 0.1 to 0.5 nM.

`CS(=O)(=O)c1cc([C@@H]2CCCO2)ccc1Nc1cc(NC(=O)[C@@H]2CC2(F)F)nc2[nH]c(C(F)F)nc12` [I-316, (S)—N-(2-(difluoromethyl)-7-((2-(methylsulfonyl)-4-((S)-tetrahydrofuran-2-yl)phenyl)amino)-3-imidazo[4,5-b]pyridin-5-yl)-2,2-difluorocyclopropane-1-carboxamide] showed a Kd of 0.5 to 1 nM.

In the case of `CS(=O)(=O)c1cc([C@@H]2CCCO2)ccc1Nc1cc(NC(=O)[C@H]2CC2(F)F)nc2[nH]c(C(F)F)nc12` [I-317, (R)—N-(2-(difluoromethyl)-7-((2-(methylsulfonyl)-4-((S)-tetrahydrofuran-2-yl)phenyl)amino)-3-imidazo[4,5-b]pyridin-5-yl)-2,2-difluorocyclopropane-1-carboxamide], the Kd is reported as 0.1 to 0.5 nM.

Molecule `CS(=O)(=O)c1cc(C2CCC2)ccc1Nc1cc(NC(=O)[C@@H]2CC2(F)F)nc2[nH]c(C(F)F)nc12` [I-318, (S)—N-(7-((4-cyclobutyl-2-(methylsulfonyl)phenyl)amino)-2-(difluoromethyl)-3H-imidazo[4,5-b]pyridin-5-yl)-2,2-difluorocyclopropane-1-carboxamide] has a Kd of over 10 nM.

For `CS(=O)(=O)c1cc(C2CCC2)ccc1Nc1cc(NC(=O)[C@H]2CC2(F)F)nc2[nH]c(C(F)F)nc12` [I-319, (R)—N-(7-((4-cyclobutyl-2-(methylsulfonyl)phenyl)amino)-2-(difluoromethyl)-3H-imidazo[4,5-b]pyridin-5-yl)-2,2-difluorocyclopropane-1-carboxamide], the Kd was over 10 nM.
